Patent US9328095B2, “Heteroaryl linked quinolinyl modulators of RORgammat” (Janssen Pharmaceutica NV, priority 2013, dated 2016)

What was measured:
[1] = biological target: T1, wild type human RORγt LBD fused to the DNA binding domain of the GAL4 protein (Homo sapiens, UniProt P51449); assay: RORγt reporter assay; assay type: cell-based; conditions: HEK293T cells
T1 construct: expressed in transfected cells; host or cells: HEK293T
T1 sequence (P51449 258-518): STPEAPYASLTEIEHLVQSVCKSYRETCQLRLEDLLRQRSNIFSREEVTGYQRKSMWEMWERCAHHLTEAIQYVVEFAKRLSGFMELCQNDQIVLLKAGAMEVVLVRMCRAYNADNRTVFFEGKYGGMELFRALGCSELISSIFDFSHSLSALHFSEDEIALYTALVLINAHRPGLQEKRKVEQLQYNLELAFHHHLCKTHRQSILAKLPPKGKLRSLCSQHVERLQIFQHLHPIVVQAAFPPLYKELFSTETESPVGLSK
Text: A reporter assay was used to test functional activity of RORγt modulatory compounds on transcriptional activation driven by the RORγt LBD. Cells used in the assay were co-transfected with two constructs. The first construct, pBIND-RORγt LBD, contained the wild type human RORγt LBD fused to the DNA binding domain of the GAL4 protein. The second construct, pGL4.31 (Promega Cat no. C935A), contained multiple GAL4 responsive DNA elements upstream of firefly luciferase. […] The mutant construct was called pBIND-RORγt-AF2.
The pBIND vector contains the GAL4 DNA Binding Domain (GAL4 DBD) and the renilla luciferase gene under control of the SV40 promoter. […]
The reporter assay was performed by transiently transfecting HEK293T cells with 5 μg of pBIND-RORγt LBD or pBIND-RORγt LBD-AF2 and 5 μg pGL4.31 (Promega Cat no. C935A) using Fugene 6 (Invitrogen Cat no. E2691) at a 1:6 ratio of DNA: Fugene 6 in a T-75 flask in which cells were at least 80% confluent. […] Dual Glo Luciferase Reagent (50 μL/well) was then added and firefly luciferase luminescence was read on an Envision after a ten minute incubation. Finally, Stop and Glo reagent (50 μL/well) was added and renilla luciferase luminescence was read on an Envision after a ten minute incubation. To calculate the effect of compounds on RORγt activity, the ratio of firefly to renilla luciferase was determined and plotted against compound concentration. […]

[2] = system: IL-17 production by CD4 T cells; assay: Human Th17 assay; assay type: cell-based; conditions: 3 days
Text: The human Th17 assay tests the effect of RORγt modulatory compounds on IL-17 production by CD4 T cells under conditions which favor Th17 differentiation.
Total CD4^+ T cells were isolated from the peripheral blood mononuclear cells (PBMC) of healthy donors using a CD4^+ T cell isolation kit II, following the manufacturer's instructions (Miltenyi Biotec). Cells were resuspended in a medium of RPMI-1640 supplemented with 10% fetal bovine serum, penicillin, streptomycin, glutamate, and β-mercaptoethanol and were added to 96-well plates at 1.5×10^5 per 100 μL per well. 50 μL of compound at titrated concentrations in DMSO were added into each well at final DMSO concentration at 0.2%. Cells were incubated for 1 hour, then 50 μL of Th17 cell differentiation medium was added to each well. The final concentrations of antibodies and cytokines (R&D Systems) in differentiation medium were: 3×10^6/mL anti-CD3/CD28 beads (prepared using human T cell activation/expansion kit, Miltenyi Biotec), 10 μg/mL anti-IL4, 10 μg/mL anti-IFNγ, 10 ng/mL IL1β, 10 ng/mL IL23, 50 ng/mL IL6, 3 ng/mL TGFβ and 20 U/mL IL2. Cells were cultured at 37° C. and 5% CO2 for 3 days. Supernatants were collected and the accumulated IL-17 in culture was measured by using MULTI-SPOT® Cytokine Plate following manufacture's instruction (Meso Scale Discovery). The plate was read using Sector Imager 6000, and IL-17 concentration was extrapolated from the standard curve. The IC50s were determined by GraphPad.

[3] = biological target: T2, human RORγt ligand binding domain (RORγt LBD) (Homo sapiens, UniProt P51449); assay: RORγt ThermoFluor assay
T2 construct: His-tag (N); TurboTEV protease cleavage site (ENLYFQG) (N); made in house; host or cells: E. coli (pHIS1, modified pET vector)
T2 sequence (P51449 with tags, fused parts or gaps): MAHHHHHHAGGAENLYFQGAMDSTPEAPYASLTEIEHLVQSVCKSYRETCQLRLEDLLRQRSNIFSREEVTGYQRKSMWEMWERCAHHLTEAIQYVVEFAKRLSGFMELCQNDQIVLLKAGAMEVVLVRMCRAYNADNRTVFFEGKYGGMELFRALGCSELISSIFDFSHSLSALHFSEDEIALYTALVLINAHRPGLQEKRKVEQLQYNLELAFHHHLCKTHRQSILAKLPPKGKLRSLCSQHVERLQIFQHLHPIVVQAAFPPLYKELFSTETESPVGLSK
Procedure: This approach is applicable to a wide variety of systems, and rigorous in theoretical interpretation through quantitation of equilibrium binding constants (KD).
The shift in the melting point described as a ΔTm is proportional to the concentration and affinity of the ligand. The compound potency may be compared as a rank order of either ΔTm values at a single compound concentration or in terms of KD values, estimated from concentration response curves.
ThermoFluor® experiments were carried out using instruments owned by Janssen Research and Discovery, L.L.C. through its acquisition of 3-Dimensional Pharmaceuticals, Inc. 1,8-ANS (Invitrogen) was used as a fluorescent dye. […]
Bar-coded assay plates are robotically loaded onto a thermostatically controlled PCR-type thermal block and then heated at a typical ramp-rate of 1° C./min for all experiments. Fluorescence was measured by continuous illumination with UV light (Hamamatsu LC6) supplied via fiber optic and filtered through a band-pass filter (380-400 nm; >6 OD cutoff). Fluorescence emission of the entire 384-well plate was detected by measuring light intensity using a CCD camera (Sensys, Roper Scientific) filtered to detect 500±25 nm, resulting in simultaneous and independent readings of all 384 wells. […]

| SMILES | IC50 [2] | other results |
| --- | --- | --- |
| CCN(CC)c1nc2ccc(C(O)(c3ccccn3)c3cncn3C)cc2c(C#N)c1Oc1ccccc1 (single isomer, unassigned) [Example 5c] | – | inhibition at 6 µM ([1]; HEK-293T, 6 μM): 103% |
| Cn1cncc1C(O)(c1ccc(C(F)(F)F)nc1)c1ccc2nc(N3CCCC3)c(Oc3ccc(C#N)cc3)c(Cl)c2c1 (stereo not drawn) [Example 2a, 4-((4-Chloro-6-(hydroxy(1-methyl-1H-imidazol-5-yl)(6-(trifluoromethyl)pyridin-3-yl)methyl)-2-(pyrrolidin-1-yl)quinolin-3-yl)oxy)benzonitrile] | 88 nM | – |
| Cn1cncc1C(O)(c1ccc(C(F)(F)F)nc1)c1ccc2nc(N3CCCC3)c(Oc3ccc(C#N)cc3)c(Cl)c2c1 (stereo not drawn) [Example 2b] | 320 nM | – |
| Cn1cncc1C(O)(c1ccc(C(F)(F)F)nc1)c1ccc2nc(N3CCCC3)c(Oc3ccc(C#N)cc3)c(Cl)c2c1 (stereo not drawn) [Example 2c] | 100 nM | – |
| CC(C)(C)OC(=O)N(c1ccccc1)c1c(Cl)nc2ccc(C(O)(c3cccnc3)c3cccc(Cl)c3)cc2c1Cl (stereo not drawn) [Example 7, tert-Butyl (2,4-dichloro-6-((3-chlorophenyl)(hydroxy)(pyridin-3-yl)methyl)quinolin-3-yl)(phenyl)carbamate] | – | Kd [3]: 23 µM; IC50 [1]: 1400 nM |
